Assays:
[1] = Solubility of DTPA in neutral pH buffer, with and without zinc acetate; format: physicochemical
Description: As used herein, the terms “poorly absorbed drug,” “drug having low solubility,” and the like refer to a drug (in its neutral (i.e., uncharged) state) having a water solubility in neutral pH buffer of less than about 20 mg/ml. […] Thus, as used herein, DTPA (including DTPA and its salts, hydrates, solvates, complexes, etc.) is a poorly absorbed drug. […] In some embodiments, the present disclosure provides a pharmaceutical composition comprising a composition with improved aqueous solubility comprising a DTPA and zinc acetate composition of the present disclosure.

[2] = Single dose pharmacokinetic testing, DTPA in blood of male beagle dogs; format: in vivo; details: 72 hours post-dose
Description: The objective of this study was to evaluate the concentration of DTPA in blood following a single administration with either Zn-DTPA injectable solution or NanoDTPA capsules using male beagle dogs. Single dose pharmacokinetic (PK) testing groups of Zn-DTPA solution vs. NanoDTPA capsules included nine study groups used for the PK testing. Zn-DTPA solution was delivered intravenously (IV) and by mouth (per os, PO) and NanoDTPA capsules were administered PO. […] Three formulations of NanoDTPA capsules were tested to examine different formulations of NanoDTPA powder and different capsule sizes. The dose for each NanoDTPA capsule formulation was either two or six capsules and the calculated DTPA doses confirmed based on the amount of DTPA in the capsules and body weight.

[3] = Americium-241 decorporation in rats (tissue levels and excretion); format: in vivo; details: NanoDTPA capsules PO 60 mg/kg DTPA; for liver total Am-241 activity: rat liver, Zn-DTPA IV 15 mg/kg DTPA, per 200 ul homogenized tissue
Description: The decorporation and excretion properties in rodents of oral NanoDTPA capsules at 60 mg/kg DTPA according to the present disclosure was compared to IV Zn-DTPA solution at 15 mg/kg DTPA, which is the currently licensed product available to the public. The studies were designed to provide data that systemic Am-241 at a single low dose followed by oral NanoDTPA capsules can provide a sufficient radiation dose reduction as an efficacy endpoint. All DTPA dosing was initiated 24 hours post-exposure to isotope (Am-241) in this set of studies to simulate a realistic emergency response time following exposure. Two sets of measurements were made: (1) internal tissue levels at 2, 4, and 7 days vs. (2) daily excreted concentrations in urine and feces.
There was a general trend of tissue reduction in all groups over the 3, 5, and 8 day observation period. All data are expressed as total Am-241 activity in nCi per 200 ul blood, homogenized tissue, or output (urine and feces).

[4] = Americium-241 decorporation in dogs (urine, feces, tissue Am-241); format: in vivo, beagle dogs; details: daily dosing days 1-14, Zn-DTPA IV 15 mg/kg, NanoDTPA 1, 2 or 6 capsules/day or 2 capsules twice/day
Description: The objective of this study was to evaluate the dose-related efficacy of daily doses of NanoDTPA capsules in male and female beagle dogs intravenously (IV) administered a soluble citrate complex of americium-241 (Am-241). Twenty-four (24) male and female beagle dogs underwent a 14-day quarantine period for acclimation. Once released from quarantine, animals were weighed and randomized into study animals or spares. The average body weight of study animals was 8.6±0.9 kg (males 9.0±1.0 kg; females 8.2±0.7 kg). After randomization, animals were acclimated to metabolism cages for 24 hours prior to radionuclide administration. Animals received a single IV administration of 241Am(III)-citrate on Day 0. One day after radionuclide administration, one of four different doses of NanoDTPA capsules [1, 2, or 6-capsules/day or 2 capsules twice/day], IV Zn-DTPA [15 mg/kg] as a positive control, or IV saline as a placebo were administered. NanoDTPA capsules, IV Zn-DTPA, or IV saline was administered on study days 1-14. Urine and feces were collected daily. Animals were euthanized on day 21 and tissues collected. Urine, fecal, and tissue samples were analyzed for Am-241 content.

| Compound | increase of the solubility of DTPA ([1]; about 10 mg/ml zinc acetate) | solubility of DTPA with zinc acetate ([1]; about 10 mg/ml zinc acetate) | increase of the solubility of DTPA ([1]; about 20 mg/ml zinc acetate) | solubility of DTPA with zinc acetate ([1]; about 20 mg/ml zinc acetate) | solubility in neutral pH buffer ([1]; neutral pH buffer, no additive) [mg/ml] | percent bioavailability ([2]; PO 6 mg DTPA/kg) [%] | percent bioavailability ([2]; PO 60 mg DTPA/kg) [%] | liver total Am-241 activity ([3]; after 2 doses, dosing from 24 h post-exposure) | liver total Am-241 activity ([3]; after 4 doses) | liver total Am-241 activity ([3]; after 7 doses) | tissue Am-241 concentrations compared to control animals receiving no DTPA treatment ([3]; rats, Zn-DTPA IV 15 mg/kg) | Am-241 activity excreted in the urine compared to the saline placebo [4] |
| --- | --- | --- | --- | --- | --- | --- | --- | --- | --- | --- | --- | --- |
| O=C(O)CN(CCN(CC(=O)O)CC(=O)O)CCN(CC(=O)O)CC(=O)O [DTPA, diethylenetriaminepentaacetate] | about 35% | about 23.3 mg/ml | about 83% | about 31.5 mg/ml | < 17.2 | – | – | – | – | – | – | – |
| O=C([O-])CN(CCN(CC(=O)[O-])CC(=O)[O-])CCN(CC(=O)[O-])CC(=O)[O-].[Na+].[Na+].[Na+].[Zn+2] [Zn-DTPA] | – | – | – | – | – | 12.26 | 12.67 | 116.37+/−26.90 nCi | 81.70+/−11.53 nCi | 55.42+/−19.68 nCi | significantly lower | approximately 9.4 times |

From patent US9040091B2 (priority 2012, dated 2015)
